Experiment [1] deals with SKBR3 (PI3Kα wild type) cells. Description: CellTiter-Glo 2.0 luminescent cell viability assay, 72 hours, SKBR3 cells. The experiment is classed as cell-based. As to conditions: Homo sapiens, SK-BR-3, 72 h, SKBR3 (PI3Kα wild type) cells, CellTiter-Glo, approximately 72 hours; read-out: SKBR3 (WT) Viability IC50. Summed up:
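Viability measured via CTG luminescence following roughly 72 hours of compound exposure at 37° C. Dosing used a 10 um starting concentration diluted 1:4 over 10 points; percent-of-vehicle data fitted with a variable-slope four-parameter model for IC50.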
(ATP-based viability assays read luminescence as a measure of living cells.)

The subject of experiment [2] is T47D (PI3Kα H1047R mutant) cells. Description: CellTiter-Glo 2.0 luminescent cell viability assay, 72 hours, T47D cells. The class given is cell-based. The settings on record: Homo sapiens, T47D, 72 h, T47D (PI3Kα H1047R mutant) cells, CellTiter-Glo, approximately 72 hours; read-out: T47D (H1047R mutant) Viability IC50. In a few lines: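 Cells seeded at 1000 per well overnight were dosed with a 10-concentration, 1:4 series starting at 10 µM and incubated ~72 h at 37° C. Viability was read by CellTiter-Glo 2.0 luminescence after 30 min at room temperature. IC50 came from four-parameter fits of percent vehicle control.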

Data on ten compounds can be found in US20260078120A1, “SUBSTITUTED PYRIDOPYRIMIDINONES” (MIRATI THERAPEUTICS, INC., priority 2022, published 2026).

As a reminder, the IC50 is the concentration that gives 50% inhibition.

The structures appear in SMILES notation.

Consider `Cc1cc([C@@H](C)Nc2ccccc2C(=O)O)c2nc(N3C[C@H]4C[C@@H]3CC4(F)F)c(C#N)c(=O)n2c1` [Example 11-230, 2-(((R)-1-(3-cyano-2-((1R,4R)-5,5-difluoro-2-azabicyclo[2.2.1]heptan-2-yl)-7-methyl-4-oxo-4H-pyrido[1,2-a]pyrimidin-9-yl)ethyl)amino)benzoic acid], for which the half-inhibitory concentration (IC50) in experiment [1] is over 10 µM; in experiment [2], 201 nM.
As to `Cc1cc([C@@H](C)Nc2ccccc2C(=O)O)c2nc(N3CC4CC(C3)O4)c(C#N)c(=O)n2c1` [Example 11-322, 2-(((1R)-1-(2-(6-oxa-3-azabicyclo[3.1.1]heptan-3-yl)-3-cyano-7-methyl-4-oxo-4H-pyrido[1,2-a]pyrimidin-9-yl)ethyl)amino)benzoic acid], the IC50 in experiment [1] is over 10 µM; in experiment [2], 711 nM.
For the compound `Cc1cc([C@@H](C)Nc2ccccc2C(=O)O)c2nc(N3CC4CC3CC4c3ccccc3)c(C)c(=O)n2c1` (stereo partly drawn) [Example 11-32, 2-(((1R)-1-(3,7-dimethyl-4-oxo-2-(5-phenyl-2-azabicyclo[2.2.1]heptan-2-yl)-4H-pyrido[1,2-a]pyrimidin-9-yl)ethyl)amino)benzoic acid], the IC50 was over 10 µM in experiment [1] and 303 nM in experiment [2].
The corresponding values for `Cc1cc(C(C)Nc2ccc(Cl)nc2C(=O)O)c2nc(N3CCCCC3)c(C#N)c(=O)n2c1` (centres unmarked) [Example 11-332, 6-chloro-3-((1-(3-cyano-7-methyl-4-oxo-2-(piperidin-1-yl)-4H-pyrido[1,2-a]pyrimidin-9-yl)ethyl)amino)picolinic acid] are 9.81 µM and 481 nM.
Turning to `Cc1cc([C@@H](C)Nc2ccccc2C(=O)O)c2nc(N3CCc4ccccc4C3)c(C)c(=O)n2c1` [Example 10-7, (R)-2-((1-(2-(3,4-dihydroisoquinolin-2(1H)-yl)-3,7-dimethyl-4-oxo-4H-pyrido[1,2-a]pyrimidin-9-yl)ethyl)amino)benzoic acid], the IC50 in experiment [1] was over 10 µM; in experiment [2], 16.9 nM.
The corresponding values for `Cc1cc([C@@H](C)Nc2ccccc2C(=O)O)c2nc(N3CCC(F)(F)C(C)C3)c(C)c(=O)n2c1` (stereo partly drawn) [Example 11-65, 2-(((1R)-1-(2-(4,4-difluoro-3-methylpiperidin-1-yl)-3,7-dimethyl-4-oxo-4H-pyrido[1,2-a]pyrimidin-9-yl)ethyl)amino)benzoic acid] are over 10 µM and 146 nM.
Take `Cc1cc([C@@H](C)Nc2ccccc2C(=O)O)c2nc(-c3cn(-c4ccc(C#N)cc4)cn3)cc(=O)n2c1` [Example 11-237, (R)-2-((1-(2-(1-(4-cyanophenyl)-1H-imidazol-4-yl)-7-methyl-4-oxo-4H-pyrido[1,2-a]pyrimidin-9-yl)ethyl)amino)benzoic acid]: the values for the IC50 in experiment [1] and in experiment [2] were over 10 µM and 1410 nM, respectively.
Take `Cc1cc(C(C)Nc2ccccc2C(=O)O)c2nc(-c3ccncc3)cc(=O)n2c1` (centres unmarked) [Example 11-400, 2-((1-(7-methyl-4-oxo-2-(pyridin-4-yl)-4H-pyrido[1,2-a]pyrimidin-9-yl)ethyl)amino)benzoic acid]: the IC50 in experiment [1] was over 10 µM; in experiment [2], 1050 nM.
Turning to `CNS(=O)(=O)c1ccc(N2CCN(c3nc4c([C@@H](C)Nc5ccccc5C(=O)O)cc(C)cn4c(=O)c3C)CC2)cc1` [Example 10-129, (R)-2-((1-(3,7-dimethyl-2-(4-(4-(N-methylsulfamoyl)phenyl)piperazin-1-yl)-4-oxo-4H-pyrido[1,2-a]pyrimidin-9-yl)ethyl)amino)benzoic acid], the IC50 in experiment [1] is over 10 µM; in experiment [2], 46.7 nM.
The corresponding values for `Cc1cc([C@@H](C)Nc2ccccc2C(=O)O)c2nc(NCC(C)C)c(C)c(=O)n2c1` [Example 11-309, (R)-2-((1-(2-(isobutylamino)-3,7-dimethyl-4-oxo-4H-pyrido[1,2-a]pyrimidin-9-yl)ethyl)amino)benzoic acid] are over 10 µM and 313 nM.
